Source: patent publication US7078403B1, “Antiviral agents” (Biota Scientific Management Pty Ltd., priority 1999, dated 2006)

How the values were obtained:
[1] = tested on: HRV type 2; assay: Inhibition of viral cytopathic effect (CPE), visual scoring or neutral red, HRV type 2 in KB cells; assay type: cell-based, human rhinovirus; conditions: for Activity on Rhinovirus Type 2 EC50: HRV type 2 in KB cells, CPE inhibition; for Activity on Rhinovirus Type 2 SI: selectivity index = CC50 or MTC divided by EC50, HRV type 2, KB cells
[2] = tested on: human embryo lung (MRC-5) cells; assay: Cytotoxicity (CC50 or MTC) in uninfected MRC-5 cells; conditions: unit not given
[3] = tested on: HRV type 1A; assay: Inhibition of viral cytopathic effect (CPE), visual scoring or neutral red, HRV type 1A in MRC-5 cells; assay type: cell-based, human rhinovirus; conditions: for Activity on Rhinovirus Type 1A EC50: HRV type 1A in MRC-5 cells, CPE inhibition; for Activity on Rhinovirus Type 1A SI: selectivity index = CC50 or MTC divided by EC50, HRV type 1A, MRC-5 cells
[4] = tested on: Rhinovirus Type 14; assay type: cell-based, human rhinovirus; conditions: HRV-14

Activity on Rhinovirus Type 14 EC50 [4] [µg/mL]	Structure (SMILES)	Activity on Rhinovirus Type 2 EC50 [1] [µg/mL]	Activity on Rhinovirus Type 2 SI [1]	Activity on Rhinovirus Type 1A MTC [2]	Activity on Rhinovirus Type 1A EC50 [3] [µg/mL]	Activity on Rhinovirus Type 1A SI [3]
	CCON=Cc1ccc(OCCC2CCN(c3ccc(OCC(F)(F)F)nn3)CC2)cc1 [Compound 21]	0.3	>3	>1	>1	
	CON=Cc1cc(C)c(OCCCc2cc(C)no2)c(C)c1 [Compound 22]	<0.05	>400	36.0	<0.16	>320
	C=CCON=Cc1cc(C)c(OCCCc2cc(C)no2)c(C)c1 [Compound 23]	<0.05	>340	>50	<0.16	>320
	Cc1cc(CCCOc2c(C)cc(C=NOCc3ccccc3)cc2C)on1 [Compound 25]	0.5	34	>50	0.36	>139.4
	CCON=Cc1ccc(OCCC2CCN(c3ccc(OC)nn3)CC2)cc1 [Compound 26]	0.16	>6	>1	0.077	>13.0
	CCON=Cc1ccc(OCCN2CCN(c3ccc(Cl)nn3)CC2)cc1 [Compound 27]	0.1	>10	>1	0.017	>59.6
	CCON=Cc1ccc(OCC2CCCN(c3ccc(Cl)nn3)C2)cc1 (centres unmarked) [Compound 28]	0.06	>17	>1	0.180	>5.5
	CCON=Cc1ccc(OCC2CCN(c3ccc(Cl)nn3)CC2)cc1 [Compound 31]	0.003	>333	>1	0.017	>59.6
	CCON=Cc1ccc(OCCCC2CCN(c3ccc(Cl)nn3)CC2)cc1 [Compound 32]	0.014	>70	>1	0.222	>4.5
	CCON=C(CC)c1ccc(OCCC2CCN(c3ccc(Cl)nn3)CC2)cc1 [Compound 34]	0.7	>1	>1	0.627	>1.59
	CCON=Cc1ccc(OCCC2CCN(c3ccc(Cl)nn3)CC2)c([N+](=O)[O-])c1 [Compound 36]	0.03	>33	0.89	0.009	99.4
	CCON=Cc1ccc(OCCC2CCN(c3ccc(Cl)nn3)CC2)cc1O [Compound 37]	0.048	>21	>1	0.010	>96.0
	C=CCON=Cc1cc(O)cc(OCCC2CCN(c3ccc(Cl)nn3)CC2)c1 [Compound 40]	0.4	>3	>1	0.583	>1.72
	CCON=Cc1cccc(OCCC2CCN(c3ccc(Cl)nn3)CC2)c1 [Compound 41]	<0.001	>1000	>1	0.016	>63.5
	C=CCON=Cc1ccc(OCCC2CCN(c3ccc(Cl)nn3)CC2)c(C)c1 [Compound 43]	0.01	>100	>1	0.006	>170
	CCON=Cc1cc(C)c(OCCC2CCN(c3ccc(Cl)nn3)CC2)c(C)c1 [Compound 45]	0.03	>32	>1	0.029	>34.0
	CCON=Cc1ccc(OCCC2CCN(c3ccc(Cl)nn3)CC2)cc1 [Compound 57]	0.00025	>400	>0.1	0.001	>56.3

Activity on Rhinovirus Type 14 EC50 [4] [µg/mL]	Structure (SMILES)	Activity on Rhinovirus Type 2 EC50 [1] [µg/mL]	Activity on Rhinovirus Type 2 SI [1]	Activity on Rhinovirus Type 1A MTC [2]	Activity on Rhinovirus Type 1A EC50 [3] [µg/mL]	Activity on Rhinovirus Type 1A SI [3]
	CCON=Cc1ccc(OCCCc2cc(C)no2)cc1 [Compound 108]	0.6	>1	>1	>1	
0.0514	CCON=Cc1ccc(OCCC2CCN(c3nnc(C(F)(F)F)s3)CC2)cc1 [Compound 154]					
0.0502	CCON=Cc1ccc(OCCC2CCN(c3cnc(Cl)cn3)CC2)cc1 [Compound 160]					
0.0697	CCO/N=C/c1c(C)cc(OCCC2CCN(c3ccc(C)nn3)CC2)cc1C [Compound 185]					
0.0349	CO/N=C/c1c(C)cc(OCCC2CCN(c3ccc(C)nn3)CC2)cc1C [Compound 186]					
0.0103	CCO/N=C/c1ccc(OCCC2CCN(c3ccc(C)nn3)CC2)cc1OC [Compound 187]					
0.0032	CCO/N=C/c1ccc(OCCC2CCN(c3ccc(C)nn3)CC2)cc1C [Compound 188]					
0.0011	CO/N=C/c1ccc(OCCC2CCN(c3ccc(C)nn3)CC2)cc1C [Compound 189]					
0.0593	CCON=Cc1cc(C)c(OCCC2CCN(c3ccc(C)nn3)CC2)cc1C [Compound 190]					
0.0256	CON=Cc1cc(C)c(OCCC2CCN(c3ccc(C)nn3)CC2)cc1C [Compound 191]					
0.0258	CCON=Cc1ccc(OCCC2CCN(c3ccc(C)nn3)CC2)c(C)c1C [Compound 192]					
0.0308	CON=Cc1ccc(OCCC2CCN(c3ccc(C)nn3)CC2)c(C)c1C [Compound 193]					
0.038	CCO/N=C/c1ccc(OCCCCN(C)c2ccc(Cl)nn2)cc1 [Compound 195]					
0.0424	CCON=Cc1ccc(OCCC2CCN(c3cccc(C)n3)CC2)cc1 [Compound 196]					
0.0402	CO/N=C/c1ccc(OCCC2CCN(c3cncc(Cl)n3)CC2)cc1 [Compound 199]					
0.021	CO/N=C/c1ccc(OCCC2CCN(c3nc4ccccc4o3)CC2)cc1 [Compound 200]					
0.0261	CCO/N=C/c1ccc(OCCC2CCN(c3nc4ccccc4o3)CC2)cc1 [Compound 201]					
